Measured values as given in patent US12466827B2, “1,3,4-oxadiazole derivative compounds as histone deacetylase 6 inhibitor, and the pharmaceutical composition comprising the same” (CHONG KUN DANG PHARMACEUTICAL CORP., priority 2020, dated 2025).
pIC50: −log10 of the molar value.

Experiments:
human recombinant HDAC1 = target: T1, human recombinant HDAC1 (Homo sapiens, UniProt Q13547); test: In vitro HDAC enzyme activity inhibition assay (HDAC1); assay type: biochemical; details: Fluor de Lys-SIRT1 substrate 10 μM, 30° C., 60 minutes, fluorescence
T1 construct: purchased Enzo Life Sciences, Inc. BML-SE456
Procedure: (§1) In order to confirm the selectivity of the compounds represented by Chemical Formula I of the present invention to HDAC6 through HDAC1 and HDAC6 enzyme activity inhibition experiments, a comparison experiment was performed using the material that has already been developed as a control group.
(§2) HDAC enzyme activity was measured using the HDAC Fluorimetric Drug Discovery Kit (Enzo Life Sciences, Inc., BML-AK511, 516). For the HDAC1 enzyme activity test, human recombinant HDAC1 (BML-SE456) was used as an enzyme source and Fluor de Lys-SIRT1 (BNL-KI177) was used as a substrate. After dispensing 5-fold diluted compounds into a 96-well plate, 0.3 μg of enzyme and 10 μM substrate were added to each well of the plate and allowed to react at 30° C. for 60 minutes. Next, Fluor de Lys Developer II (BML-KI176) was added and reacted for 30 minutes to complete the reaction, and then the fluorescence values (Ex 360, Em 460) were measured using a multi-plate reader (Flexstation 3, Molecular Device). The HDAC6 enzymes were tested using human recombinant HDAC6 (382180) from Calbiochem Inc., according to the same protocol as the HDAC1 enzyme activity test method. With respect to the final result values, respective IC50 values were calculated using GraphPad Prism 4.0 program, and results thereof were summarized in Table 4 below.

human recombinant HDAC6 = target: T2, human recombinant HDAC6 (Homo sapiens, UniProt Q9UBN7); test: In vitro HDAC enzyme activity inhibition assay (HDAC6); assay type: biochemical; details: for HDAC6 selectivity (fold): HDAC6 over HDAC1; for pIC50: same protocol as the HDAC1 test, human recombinant HDAC6 (Calbiochem)
T2 construct: purchased Calbiochem Inc. 382180
T2 sequence (Q9UBN7 1-1215): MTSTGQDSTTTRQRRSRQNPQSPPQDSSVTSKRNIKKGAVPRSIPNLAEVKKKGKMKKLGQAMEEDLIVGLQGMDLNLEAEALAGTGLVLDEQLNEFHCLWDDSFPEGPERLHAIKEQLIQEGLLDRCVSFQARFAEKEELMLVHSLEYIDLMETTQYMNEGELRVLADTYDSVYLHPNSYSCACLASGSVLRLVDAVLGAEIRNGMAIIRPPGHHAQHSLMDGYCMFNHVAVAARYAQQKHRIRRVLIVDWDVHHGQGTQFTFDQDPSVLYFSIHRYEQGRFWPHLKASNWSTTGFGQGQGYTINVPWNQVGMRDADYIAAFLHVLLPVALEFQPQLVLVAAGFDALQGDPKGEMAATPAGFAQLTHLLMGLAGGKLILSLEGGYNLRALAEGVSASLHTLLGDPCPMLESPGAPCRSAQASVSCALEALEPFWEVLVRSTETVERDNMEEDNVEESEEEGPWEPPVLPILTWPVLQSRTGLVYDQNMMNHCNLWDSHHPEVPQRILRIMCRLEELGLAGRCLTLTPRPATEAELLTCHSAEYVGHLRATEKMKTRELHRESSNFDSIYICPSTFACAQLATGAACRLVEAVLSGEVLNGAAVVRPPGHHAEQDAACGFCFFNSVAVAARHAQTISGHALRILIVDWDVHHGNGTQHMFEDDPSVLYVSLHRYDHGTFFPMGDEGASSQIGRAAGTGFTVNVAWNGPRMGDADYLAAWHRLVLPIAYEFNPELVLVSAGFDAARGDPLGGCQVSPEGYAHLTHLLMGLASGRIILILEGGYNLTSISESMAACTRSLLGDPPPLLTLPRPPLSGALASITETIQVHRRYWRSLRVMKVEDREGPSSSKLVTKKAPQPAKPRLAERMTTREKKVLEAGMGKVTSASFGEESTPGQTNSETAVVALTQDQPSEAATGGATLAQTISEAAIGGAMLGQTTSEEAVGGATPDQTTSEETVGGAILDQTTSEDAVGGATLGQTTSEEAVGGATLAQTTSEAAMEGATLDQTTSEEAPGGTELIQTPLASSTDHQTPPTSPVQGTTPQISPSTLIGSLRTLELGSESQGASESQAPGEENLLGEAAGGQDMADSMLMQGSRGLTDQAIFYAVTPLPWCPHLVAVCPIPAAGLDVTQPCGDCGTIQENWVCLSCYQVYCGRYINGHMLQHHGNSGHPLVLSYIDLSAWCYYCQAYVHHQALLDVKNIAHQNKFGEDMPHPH
Procedure: as §1, §2

T1 sequence (Q13547 whole entry): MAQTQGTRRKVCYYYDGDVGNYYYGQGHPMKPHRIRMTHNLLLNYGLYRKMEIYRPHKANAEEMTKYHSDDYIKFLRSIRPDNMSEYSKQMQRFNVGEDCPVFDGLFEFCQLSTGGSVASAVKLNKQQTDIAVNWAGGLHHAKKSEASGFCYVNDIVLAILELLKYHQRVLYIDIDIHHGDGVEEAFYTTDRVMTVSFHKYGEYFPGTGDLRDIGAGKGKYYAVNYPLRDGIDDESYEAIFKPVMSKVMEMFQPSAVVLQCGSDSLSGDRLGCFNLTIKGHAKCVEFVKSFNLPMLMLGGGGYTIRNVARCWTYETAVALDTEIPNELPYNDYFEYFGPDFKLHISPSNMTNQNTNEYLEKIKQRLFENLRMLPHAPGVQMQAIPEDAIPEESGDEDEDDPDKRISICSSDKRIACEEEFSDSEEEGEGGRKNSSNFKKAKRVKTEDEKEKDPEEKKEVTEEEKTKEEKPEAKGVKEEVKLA

CN(C)C(=O)N1CCC(S(=O)(=O)N(Cc2cn3ccc(-c4nnc(C(F)F)o4)cc3n2)c2cccc(F)c2)CC1 [Compound 4253, 4—(N-((7-(5-(difluoromethyl)-1,3,4-oxadiazol-2-yl)imidazo[1,2-a]pyridin-2-yl)methyl)-N-(3-fluorophenyl)sulfamoyl)-N, N-dimethylpiperidine-1-carboxamide]
pIC50 (human recombinant HDAC1): < 4.30 | HDAC6 selectivity (fold) (human recombinant HDAC6): 503 fold | pIC50 (human recombinant HDAC6): 7.00

O=S(=O)(C1CCN(c2ccccn2)CC1)N(Cc1cn2ccc(-c3nnc(C(F)F)o3)cc2n1)c1cccc(F)c1 [Compound 4254, N-((7-(5-(difluoromethyl)-1,3,4-oxadiazol-2-yl)imidazo[1,2-a]pyridin-2-yl)methyl)-N-(3-fluorophenyl)-1-(pyridin-2-yl)piperidine-4-sulfonamide]
pIC50 (human recombinant HDAC1): < 4.30 | HDAC6 selectivity (fold) (human recombinant HDAC6): 430 fold | pIC50 (human recombinant HDAC6): 6.93

O=S(=O)(C1CCN(c2ncccn2)CC1)N(Cc1cn2ccc(-c3nnc(C(F)F)o3)cc2n1)c1cccc(F)c1 [Compound 4255, N-((7-(5-(difluoromethyl)-1,3,4-oxadiazol-2-yl)imidazo[1,2-a]pyridin-2-yl)methyl)-N-(3-fluorophenyl)-1-(pyrimidin-2-yl)piperidine-4-sulfonamide]
pIC50 (human recombinant HDAC1): < 4.30 | HDAC6 selectivity (fold) (human recombinant HDAC6): 463 fold | pIC50 (human recombinant HDAC6): 6.97

CN1CCN(S(=O)(=O)N(Cc2cn3ccc(-c4nnc(C(F)F)o4)cc3n2)c2ccccc2)CC1 [Compound 4256, N-((7-(5-(difluoromethyl)-1,3,4-oxadiazol-2-yl)imidazo[1,2-a]pyridin-2-yl)methyl)-4-methyl-N-phenylpiperazine-1-sulfonamide]
pIC50 (human recombinant HDAC1): < 4.30 | HDAC6 selectivity (fold) (human recombinant HDAC6): 630 fold | pIC50 (human recombinant HDAC6): 7.10

CCN1CCN(S(=O)(=O)N(Cc2cn3ccc(-c4nnc(C(F)F)o4)cc3n2)c2ccccc2)CC1 [Compound 4257, N-((7-(5-(difluoromethyl)-1,3,4-oxadiazol-2-yl)imidazo[1,2-a]pyridin-2-yl)methyl)-4-ethyl-N-phenylpiperazine-1-sulfonamide]
pIC50 (human recombinant HDAC1): < 4.30 | HDAC6 selectivity (fold) (human recombinant HDAC6): 674 fold | pIC50 (human recombinant HDAC6): 7.13

CC(C)N1CCN(S(=O)(=O)N(Cc2cn3ccc(-c4nnc(C(F)F)o4)cc3n2)c2ccccc2)CC1 [Compound 4258, N-((7-(5-(difluoromethyl)-1,3,4-oxadiazol-2-yl)imidazo[1,2-a]pyridin-2-yl)methyl)-4-isopropyl-N-phenylpiperazine-1-sulfonamide]
pIC50 (human recombinant HDAC1): < 4.30 | HDAC6 selectivity (fold) (human recombinant HDAC6): 500 fold | pIC50 (human recombinant HDAC6): 7.00

CC(CO)N1CCN(S(=O)(=O)N(Cc2cn3ccc(-c4nnc(C(F)F)o4)cc3n2)c2ccccc2)CC1 (stereo not drawn) [Compound 4259, N-((7-(5-(difluoromethyl)-1,3,4-oxadiazol-2-yl)imidazo[1,2-a]pyridin-2-yl)methyl)-4-(1-hydroxypropan-2-yl)-N-phenylpiperazine-1-sulfonamide]
pIC50 (human recombinant HDAC1): < 4.30 | HDAC6 selectivity (fold) (human recombinant HDAC6): 605 fold | pIC50 (human recombinant HDAC6): 7.08

O=S(=O)(N1CCN(C2CCC2)CC1)N(Cc1cn2ccc(-c3nnc(C(F)F)o3)cc2n1)c1ccccc1 [Compound 4260, 4-cyclobutyl-N-((7-(5-(difluoromethyl)-1,3,4-oxadiazol-2-yl)imidazo[1,2-a]pyridin-2-yl)methyl)-N-phenylpiperazine-1-sulfonamide]
pIC50 (human recombinant HDAC1): < 4.30 | HDAC6 selectivity (fold) (human recombinant HDAC6): 573 fold | pIC50 (human recombinant HDAC6): 7.06

O=S(=O)(N1CCN(C2COC2)CC1)N(Cc1cn2ccc(-c3nnc(C(F)F)o3)cc2n1)c1ccccc1 [Compound 4261, N-((7-(5-(difluoromethyl)-1,3,4-oxadiazol-2-yl)imidazo[1,2-a]pyridin-2-yl)methyl)-4-(oxetan-3-yl)-N-phenylpiperazine-1-sulfonamide]
pIC50 (human recombinant HDAC1): < 4.30 | HDAC6 selectivity (fold) (human recombinant HDAC6): 588 fold | pIC50 (human recombinant HDAC6): 7.07

O=S(=O)(N1CCN(C2CCCCC2)CC1)N(Cc1cn2ccc(-c3nnc(C(F)F)o3)cc2n1)c1ccccc1 [Compound 4262, 4-cyclohexyl-N-((7-(5-(difluoromethyl)-1,3,4-oxadiazol-2-yl)imidazo[1,2-a]pyridin-2-yl)methyl)-N-phenylpiperazine-1-sulfonamide]
pIC50 (human recombinant HDAC1): < 4.30 | HDAC6 selectivity (fold) (human recombinant HDAC6): 167 fold | pIC50 (human recombinant HDAC6): 6.52

O=S(=O)(N1CCN(C2CCOCC2)CC1)N(Cc1cn2ccc(-c3nnc(C(F)F)o3)cc2n1)c1ccccc1 [Compound 4263, N-((7-(5-(difluoromethyl)-1,3,4-oxadiazol-2-yl)imidazo[1,2-a]pyridin-2-yl)methyl)-N-phenyl-1-(tetrahydro-2H-pyran-4-yl)piperazine-1-sulfonamide]
pIC50 (human recombinant HDAC1): < 4.30 | HDAC6 selectivity (fold) (human recombinant HDAC6): 397 fold | pIC50 (human recombinant HDAC6): 6.90

O=S(=O)(N1CCN(C2CCC(F)(F)CC2)CC1)N(Cc1cn2ccc(-c3nnc(C(F)F)o3)cc2n1)c1ccccc1 [Compound 4264]
pIC50 (human recombinant HDAC1): < 4.30 | HDAC6 selectivity (fold) (human recombinant HDAC6): 246 fold | pIC50 (human recombinant HDAC6): 6.69

CC(=O)N1CCN(S(=O)(=O)N(Cc2cn3ccc(-c4nnc(C(F)F)o4)cc3n2)c2ccccc2)CC1 [Compound 4265, 4-acetyl-N-((7-(5-(difluoromethyl)-1,3,4-oxadiazol-2-yl)imidazo[1,2-a]pyridin-2-yl)methyl)-N-phenylpiperazine-1-sulfonamide]
pIC50 (human recombinant HDAC1): < 4.30 | HDAC6 selectivity (fold) (human recombinant HDAC6): 585 fold | pIC50 (human recombinant HDAC6): 7.07

CCC(=O)N1CCN(S(=O)(=O)N(Cc2cn3ccc(-c4nnc(C(F)F)o4)cc3n2)c2ccccc2)CC1 [Compound 4266, N-((7-(5-(difluoromethyl)-1,3,4-oxadiazol-2-yl)imidazo[1,2-a]pyridin-2-yl)methyl)-N-phenyl-4-propionylpiperazine-1-sulfonamide]
pIC50 (human recombinant HDAC1): < 4.30 | HDAC6 selectivity (fold) (human recombinant HDAC6): 431 fold | pIC50 (human recombinant HDAC6): 6.94

O=C(CO)N1CCN(S(=O)(=O)N(Cc2cn3ccc(-c4nnc(C(F)F)o4)cc3n2)c2ccccc2)CC1 [Compound 4267, N-((7-(5-(difluoromethyl)-1,3,4-oxadiazol-2-yl)imidazo[1,2-a]pyridin-2-yl)methyl)-4-(2-hydroxyacetyl)-N-phenylpiperazine-1-sulfonamide]
pIC50 (human recombinant HDAC1): < 4.30 | HDAC6 selectivity (fold) (human recombinant HDAC6): 524 fold | pIC50 (human recombinant HDAC6): 7.02

O=C(C1CCC1)N1CCN(S(=O)(=O)N(Cc2cn3ccc(-c4nnc(C(F)F)o4)cc3n2)c2ccccc2)CC1 [Compound 4268, 4-(cyclobutanecarbonyl)-N-((7-(5-(difluoromethyl)-1,3,4-oxadiazol-2-yl)imidazo[1,2-a]pyridine-2-yl)methyl)-N-phenylpiperazine-1-sulfonamide]
pIC50 (human recombinant HDAC1): < 4.30 | HDAC6 selectivity (fold) (human recombinant HDAC6): 389 fold | pIC50 (human recombinant HDAC6): 6.89

O=C(C1COC1)N1CCN(S(=O)(=O)N(Cc2cn3ccc(-c4nnc(C(F)F)o4)cc3n2)c2ccccc2)CC1 [Compound 4269, N-((7-(5-(difluoromethyl)-1,3,4-oxadiazol-2-yl)imidazo[1,2-a]pyridin-2-yl)methyl)-4-(oxetan-3-carbonyl)-N-phenylpiperazine-1-sulfonamide]
pIC50 (human recombinant HDAC1): < 4.30 | HDAC6 selectivity (fold) (human recombinant HDAC6): 259 fold | pIC50 (human recombinant HDAC6): 6.71
